Experiment [1] concerns NRF2 mediated gene NAD(P)H:quinone acceptor oxidoreductase 1 (NQO1) in BEAS-2B cells. Briefly: Beas2B NQO1 mRNA Cell Based Assay. Also on record: species or system human. Particulars: Homo sapiens. The protocol:
Beas2B NQO1 mRNA Cell Based Assay
The up regulation of the NRF2 mediated gene NAD(P)H:quinone acceptor oxidoreductase 1 (NQO1) was measured using the following assay method: BEAS-2B cells (ATCC CRL-9609) were plated in 96-well clear plates at 20,000 cells/well in 75 μL of cell culture media and incubated overnight (37° C., 5% CO2). On day 2, 25 μL of compound or controls were added to the cells for 24 h. On day 3, the medium was aspirated from the plate and the Cells-to-CT™ 1-Step TaqMan® Kit (Ambion A25603) was used to perform expression analysis directly from cultured cells without RNA purification according to the manufacturer's instructions.
Briefly, cells were washed with ice cold PBS and 22.5 μL of room-temperature DNase/Lysis solution was added to the cells and incubated at room temperature for 5 minutes. To stop the reaction, 2.25 μL of stop solution was added to the cell lysate. The samples were diluted 1:5 using nuclease free water and 2.5 μL transferred into the PCR plate. Real-time PCR was performed using the C-1000 Thermal Cycler (Bio-Rad) using human beta actin as the internal control. The cDNA was amplified with a specific primer for NQO1 using the 1-step RT-PCR master mix (Ambion Cells-to-CTTM 1-Step TaqMan® Kit A25603). The primers/probes sets that were used for amplification of cDNA were obtained from TaqMan Gene Expression Assays (Applied Biosystems). The comparative CT (ΔΔCT) relative quantification method was used to calculate the relative mRNA level of the target gene NQO1 as described in the Applied Biosystems Chemistry Guide. The data are expressed as an increase in target gene mRNA compared to vehicle (0.1% DMSO) control and the EC50 values were determined by fitting the data to a four parameter logistic fit using XLfit or XE Runner within ActivityBase.

The target of experiment [2] is T1, human KEAP1 (N-term, residues 321-609) (Homo sapiens, UniProt Q14145).
T1 construct: human KEAP1 (N-term, residues 321-609)
T1 sequence (Q14145 321-609): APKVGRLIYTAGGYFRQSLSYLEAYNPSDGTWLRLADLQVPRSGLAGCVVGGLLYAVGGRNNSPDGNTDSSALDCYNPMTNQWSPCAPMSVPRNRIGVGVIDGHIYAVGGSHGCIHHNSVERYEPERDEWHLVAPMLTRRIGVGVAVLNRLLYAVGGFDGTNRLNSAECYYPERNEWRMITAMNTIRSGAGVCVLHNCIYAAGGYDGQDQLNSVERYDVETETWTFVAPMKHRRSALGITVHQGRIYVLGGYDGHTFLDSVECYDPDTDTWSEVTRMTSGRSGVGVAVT
Description: KEAP1 Kelch Fluorescence Polarization (FP) Assay. Particulars: inhibition of Kelch domain-NRF2 interaction; 2 nM FITC-labelled NRF2 peptide, 25 nM KEAP1, 1 h room temperature; compounds below 10 nM cannot be differentiated. In kind it is binding. An outline of the steps:
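Compounds in 12-point curves (top 10 μM) displaced 2 nM FITC-labelled NRF2 peptide from 25 nM KEAP1 residues 321-609 over 1 h at room temperature. Polarization read at 470/530 nm, window set by 50 μM unlabelled peptide; four-parameter fit gave IC50, floor 10 nM.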

The mark [3] stands for this setting: BEAS-2B cells, compound for 24 h, increase in NQO1 mRNA compared to vehicle (0.1% DMSO) control, read-out: EC50.

pEC50, pIC50: −log10 of the molar value. Where two headings read alike, the source gives them in different places. Some results are limits rather than exact numbers.

The pEC50 is the EC50 on a negative log10 scale, so that one unit is a factor of ten. The term pIC50 denotes −log10 of the IC50, conventionally taken in molar units. A higher pIC50 goes with a small IC50. On to `CNC(=O)[C@H]1CCCC[C@H]1C(=O)N1CCc2c(Cl)ccc(OCc3noc(C(C)C)n3)c2[C@H]1CN1CCCC1=O` [Example 57, (1S,2R)-2-((S)-5-chloro-8-((5-isopropyl-1,2,4-oxadiazol-3-yl)methoxy)-1-((2-oxopyrrolidin-1-yl)methyl)-1,2,3,4-tetrahydroisoquinoline-2-carbonyl)-N-methylcyclohexane-1-carboxamide], for which the pEC50 in experiment [1] (setting [3]) is 5.40. Besides, the pIC50 in experiment [2] was 6.95.
For `CNC(=O)[C@H]1CCCC[C@H]1C(=O)N1CCc2c(Cl)ccc(OCc3nnn(C)c3C(F)F)c2[C@H]1CN1CCCC1=O` [Example 58, (1S,2R)-2-((S)-5-chloro-8-((5-(difluoromethyl)-1-methyl-1H-1,2,3-triazol-4-yl)methoxy)-1-((2-oxopyrrolidin-1-yl)methyl)-1,2,3,4-tetrahydroisoquinoline-2-carbonyl)-N-methylcyclohexane-1-carboxamide], the pEC50 in experiment [1] (setting [3]) is 6.69. In experiment [2], this compound had a pIC50 of 7.96.
On the same counts, the results for `CNC(=O)[C@H]1CCCC[C@H]1C(=O)N1CCc2c(Cl)ccc(OCc3cccnc3)c2[C@H]1CN1CCCC1=O` [Example 60, (1S,2R)-2-((S)-5-chloro-1-((2-oxopyrrolidin-1-yl)methyl)-8-(pyridin-3-ylmethoxy)-1,2,3,4-tetrahydroisoquinoline-2-carbonyl)-N-methylcyclohexane-1-carboxamide] are 6.19 and 7.14.
The matching figures for `CNC(=O)[C@H]1CCCC[C@H]1C(=O)N1CCc2c(Cl)ccc(OCc3cccnn3)c2[C@H]1CN1CCCC1=O` [Example 61, (1S,2R)-2-((S)-5-chloro-1-((2-oxopyrrolidin-1-yl)methyl)-8-(pyridazin-3-ylmethoxy)-1,2,3,4-tetrahydroisoquinoline-2-carbonyl)-N-methylcyclohexane-1-carboxamide]: 5.97 and 7.47.
The matching figures for `CNC(=O)[C@H]1CCCC[C@H]1C(=O)N1CCc2c(Cl)ccc(OCc3cnccn3)c2[C@H]1CN1CCCC1=O` [Example 62, (1S,2R)-2-((S)-5-chloro-1-((2-oxopyrrolidin-1-yl)methyl)-8-(pyrazin-2-ylmethoxy)-1,2,3,4-tetrahydroisoquinoline-2-carbonyl)-N-methylcyclohexane-1-carboxamide]: 5.84 and 7.09.
Consider `CNC(=O)[C@H]1CCCC[C@H]1C(=O)N1CCc2c(Cl)ccc(OCc3ccccn3)c2[C@H]1CN1CCCC1=O` [Example 63, (1S,2R)-2-((S)-5-chloro-1-((2-oxopyrrolidin-1-yl)methyl)-8-(pyridin-2-ylmethoxy)-1,2,3,4-tetrahydroisoquinoline-2-carbonyl)-N-methylcyclohexane-1-carboxamide], for which the pEC50 in experiment [1] (setting [3]) was less than 5.00. For the same compound, the pIC50 in experiment [2] is 6.47.
On the same counts, the results for `CNC(=O)[C@H]1CCCC[C@H]1C(=O)N1CCc2c(Cl)ccc(OCc3cncnc3)c2[C@H]1CN1CCCC1=O` [Example 64, (1S,2R)-2-((S)-5-chloro-1-((2-oxopyrrolidin-1-yl)methyl)-8-(pyrimidin-5-ylmethoxy)-1,2,3,4-tetrahydroisoquinoline-2-carbonyl)-N-methylcyclohexane-1-carboxamide] are 5.24 and 7.39.
`CNC(=O)[C@H]1CCCC[C@H]1C(=O)N1CCc2c(Cl)ccc(OCCc3cn(C)nn3)c2[C@H]1CN1CCCC1=O` [Example 66, (1S,2R)-2-((S)-5-chloro-8-(2-(1-methyl-1H-1,2,3-triazol-4-yl)ethoxy)-1-((2-oxopyrrolidin-1-yl)methyl)-1,2,3,4-tetrahydroisoquinoline-2-carbonyl)-N-methylcyclohexane-1-carboxamide]: the pEC50 in experiment [1] (setting [3]) is 5.25. The pIC50 in experiment [2] was 6.82.
`CNC(=O)N1CCC[C@H]1C(=O)N1CCc2c(Cl)ccc(OCc3nnn(C)c3C(F)F)c2[C@H]1CN1CCCC1=O` [Example 67, (S)-2-((S)-5-chloro-8-((5-(difluoromethyl)-1-methyl-1H-1,2,3-triazol-4-yl)methoxy)-1-((2-oxopyrrolidin-1-yl)methyl)-1,2,3,4-tetrahydroisoquinoline-2-carbonyl)-N-methylpyrrolidine-1-carboxamide]: the pEC50 in experiment [1] (BEAS-2B, 24 h) was 5.87. Besides, in experiment [2], the negative logarithm of the IC50 (pIC50) is 7.54.
In the case of `CNC(=O)[C@H]1CCCC[C@H]1C(=O)N1CCc2c(Cl)ccc(OCc3cnc4c(c3)ncn4C)c2[C@H]1CN1CCCC1=O` [Example 68, (1S,2R)-2-((S)-5-chloro-8-((3-methyl-3H-imidazo[4,5-b]pyridin-6-yl)methoxy)-1-((2-oxopyrrolidin-1-yl)methyl)-1,2,3,4-tetrahydroisoquinoline-2-carbonyl)-N-methylcyclohexane-1-carboxamide], the pEC50 in experiment [1] (setting [3]) is 6.84. In addition, the pIC50 in experiment [2] is 7.89.
On the same counts, the results for `CNC(=O)[C@@]1(C)CCCC[C@H]1C(=O)N1CCc2c(Cl)ccc(OCc3nnn(C)c3C(F)F)c2[C@H]1CN1CCCC1=O` [Example 69, (1S,2R)-2-((S)-5-chloro-8-((5-(difluoromethyl)-1-methyl-1H-1,2,3-triazol-4-yl)methoxy)-1-((2-oxopyrrolidin-1-yl)methyl)-1,2,3,4-tetrahydroisoquinoline-2-carbonyl)-N,1-dimethylcyclohexane-1-carboxamide] are 6.62 and 7.85.
The matching figures for `CNC(=O)[C@H]1CCCC[C@H]1C(=O)N1CCc2c(Cl)ccc(OCc3noc4ncccc34)c2[C@H]1CN1CCCC1=O` [Example 70, (1S,2R)-2-((S)-5-chloro-8-(isoxazolo[5,4-b]pyridin-3-ylmethoxy)-1-((2-oxopyrrolidin-1-yl)methyl)-1,2,3,4-tetrahydroisoquinoline-2-carbonyl)-N-methylcyclohexane-1-carboxamide]: 6.53 and 7.54.
The matching figures for `CNC(=O)[C@H]1CCCC[C@H]1C(=O)N1CCc2c(Cl)ccc(OCc3ccc4c(C)noc4n3)c2[C@H]1CN1CCCC1=O` [Example 71, (1S,2R)-2-((S)-5-chloro-8-((3-methylisoxazolo[5,4-b]pyridin-6-yl)methoxy)-1-((2-oxopyrrolidin-1-yl)methyl)-1,2,3,4-tetrahydroisoquinoline-2-carbonyl)-N-methylcyclohexane-1-carboxamide]: 6.94 and 7.77.
Consider `CNC(=O)[C@H]1CCCC[C@H]1C(=O)N1CCc2c(Cl)ccc(OCc3ccc4c(c3)nnn4C)c2[C@H]1CN1CCCC1=O` [Example 72, (1S,2R)-2-((S)-5-chloro-8-((1-methyl-1H-benzo[d][1,2,3]triazol-5-yl)methoxy)-1-((2-oxopyrrolidin-1-yl)methyl)-1,2,3,4-tetrahydroisoquinoline-2-carbonyl)-N-methylcyclohexane-1-carboxamide], for which the pEC50 in experiment [1] (setting [3]) is 6.22. In experiment [2], this compound showed a negative logarithm of the IC50 (pIC50) of 7.57.
On the same counts, the results for `CNC(=O)[C@H]1CCCC[C@H]1C(=O)N1CCc2c(Cl)ccc(OCc3nnc4ccccn34)c2[C@H]1CN1CCCC1=O` [Example 73, (1S,2R)-2-((S)-8-([1,2,4]triazolo[4,3-a]pyridin-3-ylmethoxy)-5-chloro-1-((2-oxopyrrolidin-1-yl)methyl)-1,2,3,4-tetrahydroisoquinoline-2-carbonyl)-N-methylcyclohexane-1-carboxamide] are 6.54 and 8.03.
The matching figures for `CNC(=O)[C@H]1CCCC[C@H]1C(=O)N1CCc2c(Cl)ccc(OCc3cn(C)nn3)c2[C@H]1CN1CCCC1=O` [Example 74, (1S,2R)-2-((S)-5-chloro-8-((1-methyl-1H-1,2,3-triazol-4-yl)methoxy)-1-((2-oxopyrrolidin-1-yl)methyl)-1,2,3,4-tetrahydroisoquinoline-2-carbonyl)-N-methylcyclohexane-1-carboxamide]: 6.48 and 7.80.
On the same counts, the results for `CNC(=O)[C@H]1CCCC[C@H]1C(=O)N1CCc2c(Cl)ccc(OCc3cn4cccnc4n3)c2[C@H]1CN1CCCC1=O` [Example 75, (1S,2R)-2-((S)-5-chloro-8-(imidazo[1,2-a]pyrimidin-2-ylmethoxy)-1-((2-oxopyrrolidin-1-yl)methyl)-1,2,3,4-tetrahydroisoquinoline-2-carbonyl)-N-methylcyclohexane-1-carboxamide] are 5.66 and 7.14.

Source of the values: US20230159511A1, “TETRAHYDROISOQUINOLINE COMPOUNDS AS NRF2 ACTIVATORS” (C4X Discovery Limited, priority 2020, published 2023).
